Results on 16 compounds are retold here after patent US7517885B2, “Substituted [4-(4-phenyl-piperazin-1-yl)-cyclohexyl]-urea compounds” (Janssen Pharmaceutica N.V., priority 2005, dated 2009).

The target of one test is T1, α1b-AR (Homo sapiens, UniProt P35368).
T1 construct: expressed in transfected cells; host or cells: COS-7 cells (membranes)
T1 sequence (P35368 1-520): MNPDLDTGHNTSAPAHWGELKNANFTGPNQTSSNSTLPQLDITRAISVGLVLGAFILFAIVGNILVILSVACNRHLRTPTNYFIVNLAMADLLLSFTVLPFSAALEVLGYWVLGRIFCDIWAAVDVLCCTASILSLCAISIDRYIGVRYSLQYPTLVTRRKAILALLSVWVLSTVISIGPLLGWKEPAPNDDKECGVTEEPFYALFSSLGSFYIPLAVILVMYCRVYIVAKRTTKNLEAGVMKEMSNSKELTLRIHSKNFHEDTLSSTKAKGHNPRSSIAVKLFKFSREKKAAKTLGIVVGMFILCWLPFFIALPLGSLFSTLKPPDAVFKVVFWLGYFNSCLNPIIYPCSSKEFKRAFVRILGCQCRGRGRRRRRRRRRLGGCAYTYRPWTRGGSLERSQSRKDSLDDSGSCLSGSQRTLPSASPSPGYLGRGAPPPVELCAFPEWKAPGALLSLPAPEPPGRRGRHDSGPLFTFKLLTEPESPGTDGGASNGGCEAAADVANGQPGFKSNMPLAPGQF
The experiment in a line: α1-Adrenergic Receptor Binding Assay (125I-HEAT radio-ligand), α1b subtype. To be noted: membranes of COS-7 cells transfected with α1b subtype; 125I-HEAT 50 pM; rt 1 hr. The procedure:
(§1) α1-Adrenergic Receptor Binding Assay
(§2) Preparation of COS Cell Membranes
(§3) Membranes were prepared from COS-7 cells (African Green monkey kidney SV40-transformed cells) that had been transfected with one of the three α1-AR subtypes (Genbank accession number for the α1a subtype: AF013261; Genbank accession number for the α1b subtype: NM000679; Genbank accession number for the α1d subtype: NM000678) using the following method: COS cells from ten 100 mm tissue culture plates were scraped into a 5 mL volume of TE (a mixture of 50 mM Tris-HCl, 5 mM EDTA, pH 7.4). […] The disrupted cells were centrifuged at 1000×g min at 4° C. Supernatants were centrifuged at 34,500×g for 20 min at 4° C. The membrane pellets were suspended in a 2 mL volume of TNE (a mixture of 50 mM Tris-HCl, 5 mM EDTA and 150 mM NaCl at pH 7.4). An aliquot of the membrane suspension was stored at −70° C. until use. The protein concentration was determined using the BioRad “DC” protein assay kit following membrane solubilization with Triton X-100.
(§4) Radio-Ligand Binding Assay
(§5) Triplicate determinations of radio-ligand binding in the presence of increasing concentrations of testing compound were made. The reagents were added to 96-well polypropylene plate wells. […] The plate was incubated at rt for 1 hr. The contents of the wells were filtered through a glass filter (type C) (GF/C) membrane Unifilter plate (Packard Instruments) using the Packard Filtermate cell harvester. The filter plates were dried in a vacuum oven for 30 min at 40° C. 25 μL Microscint 20 liquid scintillation fluid (Packard Instruments) was added to each well. The radioactive content was analyzed in the TopCount microplate scintillation counter (Packard Instruments).

A further test has as its target T2, α1d-AR (Homo sapiens, UniProt P25100).
T2 construct: expressed in transfected cells; host or cells: COS-7 cells (membranes)
T2 sequence (P25100 1-572): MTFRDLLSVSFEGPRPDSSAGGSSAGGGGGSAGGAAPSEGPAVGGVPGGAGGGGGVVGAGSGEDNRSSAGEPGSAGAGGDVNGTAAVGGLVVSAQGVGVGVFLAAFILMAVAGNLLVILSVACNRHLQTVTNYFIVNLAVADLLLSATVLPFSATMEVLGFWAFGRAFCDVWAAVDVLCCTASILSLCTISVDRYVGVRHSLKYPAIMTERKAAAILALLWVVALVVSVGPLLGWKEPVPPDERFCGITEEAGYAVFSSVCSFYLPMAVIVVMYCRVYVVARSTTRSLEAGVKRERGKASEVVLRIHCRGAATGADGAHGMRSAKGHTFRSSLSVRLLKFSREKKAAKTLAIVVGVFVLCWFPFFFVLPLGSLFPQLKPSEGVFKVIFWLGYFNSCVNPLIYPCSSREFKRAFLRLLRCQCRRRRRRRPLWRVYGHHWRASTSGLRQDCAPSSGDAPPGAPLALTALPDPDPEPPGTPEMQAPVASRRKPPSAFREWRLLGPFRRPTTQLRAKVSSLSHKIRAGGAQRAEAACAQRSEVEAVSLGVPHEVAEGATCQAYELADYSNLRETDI
The experiment in a line: α1-Adrenergic Receptor Binding Assay (125I-HEAT radio-ligand), α1d subtype. The following applies: membranes of COS-7 cells transfected with α1d subtype; 125I-HEAT 50 pM; rt 1 hr. How it is done: as §1, §2, §3, §4, §5

The next test deals with T3, α1a-AR (Homo sapiens, UniProt P35348).
T3 construct: expressed in transfected cells; host or cells: COS-7 cells (membranes)
T3 sequence (P35348 1-455 isoform P35348-4): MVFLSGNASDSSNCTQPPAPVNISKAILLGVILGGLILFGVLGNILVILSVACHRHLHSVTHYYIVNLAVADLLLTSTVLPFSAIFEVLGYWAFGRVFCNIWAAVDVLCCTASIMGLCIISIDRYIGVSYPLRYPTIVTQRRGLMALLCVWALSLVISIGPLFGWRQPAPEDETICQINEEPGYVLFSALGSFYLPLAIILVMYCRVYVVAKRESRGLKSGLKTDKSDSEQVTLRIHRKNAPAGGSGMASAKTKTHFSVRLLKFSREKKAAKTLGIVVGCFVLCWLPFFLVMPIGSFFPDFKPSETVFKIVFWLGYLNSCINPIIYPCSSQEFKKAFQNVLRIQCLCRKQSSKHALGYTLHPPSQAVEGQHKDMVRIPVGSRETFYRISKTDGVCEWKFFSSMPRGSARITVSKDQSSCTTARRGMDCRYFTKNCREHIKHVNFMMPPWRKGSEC
The experiment in a line: α1-Adrenergic Receptor Binding Assay (125I-HEAT radio-ligand), α1a subtype. To be noted: membranes of COS-7 cells transfected with α1a subtype; 125I-HEAT 50 pM; rt 1 hr. How it is done: as §1, §2, §3, §4, §5

The test system of test [1] is α1a and α1d subtypes over the α1b subtype. To be noted: cited from earlier work.

What is called Ki is the equilibrium dissociation constant of an inhibitor or competing ligand from its target. Low values mean tighter binding, high ones weaker binding. On to `COc1ccc(NC(=O)N[C@H]2CC[C@@H](N3CCN(c4ccccc4OC(C)C)CC3)CC2)cc1Cl` [Cpd 34, 1-(3-chloro-4-methoxy-phenyl)-r-3-{c-4-[4-(2-isopropoxy-phenyl)-piperazin-1-yl]-cyclohexyl}-urea], for which the results for the Ki at α1b-AR, on α1d-AR and on α1a-AR were 493 nM, 28 nM and 73 nM, respectively.
On the same counts, the results for `CC(C)Oc1ccccc1N1CCN([C@H]2CC[C@@H](NC(=O)Nc3ccc(OC(F)(F)F)cc3)CC2)CC1` [Cpd 31, r-1-{c-4-[4-(2-isopropoxy-phenyl)-piperazin-1-yl]-cyclohexyl}-3-(4-trifluoromethoxy-phenyl)-urea] are 277 nM, 4.5 nM and 48 nM.
For `CC(C)Oc1ccccc1N1CCN([C@H]2CC[C@@H](NC(=O)Nc3cc(F)cc(F)c3)CC2)CC1` [Cpd 28, 1-(3,5-difluoro-phenyl)-r-3-{c-4-[4-(2-isopropoxy-phenyl)-piperazin-1-yl]-cyclohexyl}-urea], in that order: 1050 nM, 44 nM and 108 nM.
`CC(C)Oc1ccccc1N1CCN([C@H]2CC[C@H](NC(=O)Nc3ccccc3Cl)CC2)CC1` [Cpd 10, 1-(2-chloro-phenyl)-r-3-{t-4-[4-(2-isopropoxy-phenyl)-piperazin-1-yl]-cyclohexyl}-urea]: the Ki is 39 nM on α1b-AR, 3 nM at α1d-AR and 11.4 nM on α1a-AR.
For `CC(C)Oc1ccccc1N1CCN([C@H]2CC[C@@H](NC(=O)Nc3c(Cl)cc(Cl)cc3Cl)CC2)CC1` [Cpd 15, r-1-{c-4-[4-(2-isopropoxy-phenyl)-piperazin-1-yl]-cyclohexyl}-3-(2,4,6-trichloro-phenyl)-urea], in that order: 483 nM, 25.3 nM and 51.2 nM.
Turning to `CC(C)Oc1ccccc1N1CCN([C@H]2CC[C@@H](NC(=O)NCc3cccc(F)c3)CC2)CC1` [Cpd 5, 1-(3-fluoro-benzyl)-r-3-{c-4-[4-(2-isopropoxy-phenyl)-piperazin-1-yl]-cyclohexyl}-urea], the Ki at α1b-AR amounted to 706 nM; on α1d-AR, 62 nM; at α1a-AR it was 82 nM.
For `CC(C)Oc1ccccc1N1CCN(C2CCC(NC(=O)Nc3ccccc3OC(F)(F)F)CC2)CC1` (mixture of isomers) [Cpd 30, 1-{4-[4-(2-isopropoxy-phenyl)-piperazin-1-yl]-cyclohexyl}-3-(2-trifluoromethoxy-phenyl)-urea], the Ki is 604 nM on α1b-AR, 13.4 nM on α1d-AR and 101 nM on α1a-AR.
For the compound `CCOc1ccccc1OCCN[C@H](C)Cc1ccc(OC)c(S(N)(=O)=O)c1` [Tamsulosin], in test [1], the “selective for the α1a and α1d subtypes over the α1b subtype” value was “about 15 fold”.
Take `COc1ccc(NC(=O)N[C@H]2CC[C@H](N3CCN(c4ccccc4OC(C)C)CC3)CC2)c(C)c1` [Cpd 21, r-1-{t-4-[4-(2-isopropoxy-phenyl)-piperazin-1-yl]-cyclohexyl}-3-(4-methoxy-2-methyl-phenyl)-urea]: the Ki on α1b-AR was determined as 153 nM; on α1d-AR, 21.6 nM; at α1a-AR, 23.4 nM.
Consider `CC(C)Oc1ccccc1N1CCN([C@H]2CC[C@H](NC(=O)Nc3c(Cl)cc(Cl)cc3Cl)CC2)CC1` [Cpd 16, r-1-{t-4-[4-(2-isopropoxy-phenyl)-piperazin-1-yl]-cyclohexyl}-3-(2,4,6-trichloro-phenyl)-urea], for which the inhibition constant Ki was 112 nM at α1b-AR, 3.6 nM on α1d-AR and 6.4 nM at α1a-AR.
For `CC(C)Oc1ccccc1N1CCN([C@H]2CC[C@@H](NC(=O)Nc3cc(F)ccc3F)CC2)CC1` [Cpd 24, 1-(2,5-difluoro-phenyl)-r-3-{c-4-[4-(2-isopropoxy-phenyl)-piperazin-1-yl]-cyclohexyl}-urea], in that order: 259 nM, 52.5 nM and 25.8 nM.
`CC(C)Oc1ccccc1N1CCN([C@H]2CC[C@@H](NC(=O)Nc3ccccc3Cl)CC2)CC1` [Cpd 9, 1-(2-chloro-phenyl)-r-3-{c-4-[4-(2-isopropoxy-phenyl)-piperazin-1-yl]-cyclohexyl}-urea]: the results for the Ki at α1b-AR, on α1d-AR and at α1a-AR were 373 nM, 46 nM and 47.5 nM, respectively.
On the same counts, the results for `CC(C)Oc1ccccc1N1CCN([C@H]2CC[C@H](NC(=O)Nc3cc(F)ccc3F)CC2)CC1` [Cpd 25, 1-(2,5-difluoro-phenyl)-r-3-{t-4-[4-(2-isopropoxy-phenyl)-piperazin-1-yl]-cyclohexyl}-urea] are 36.4 nM, 1.2 nM and 1.7 nM.
`CC(C)Oc1ccccc1N1CCN([C@H]2CC[C@H](NC(=O)Nc3ccc(OC(F)(F)F)cc3)CC2)CC1` [Cpd 32, r-1-{t-4-[4-(2-isopropoxy-phenyl)-piperazin-1-yl]-cyclohexyl}-3-(4-trifluoromethoxy-phenyl)-urea]: the Ki at α1b-AR is 129 nM; on α1d-AR, 58 nM; at α1a-AR, 181 nM.
For `CC(C)Oc1ccccc1N1CCN([C@H]2CC[C@H](NC(=O)NCc3cccc(F)c3)CC2)CC1` [Cpd 6, 1-(3-fluoro-benzyl)-r-3-{t-4-[4-(2-isopropoxy-phenyl)-piperazin-1-yl]-cyclohexyl}-urea], in that order: 69.6 nM, 15.3 nM and 10.8 nM.
For `COc1ccc(C)cc1NC(=O)N[C@H]1CC[C@@H](N2CCN(c3ccccc3OC(C)C)CC2)CC1` [Cpd 33, r-1-{c-4-[4-(2-isopropoxy-phenyl)-piperazin-1-yl]-cyclohexyl}-3-(2-methoxy-5-methyl-phenyl)-urea], the figures for the Ki on α1b-AR, on α1d-AR and on α1a-AR were 168 nM, 6.5 nM and 37 nM, respectively.
